How the values were obtained:
PanC-1 cells = experiment: colony formation, PanC-1; format: cell-based
[1] = system: HCT116 colon cancer tumor xenografts; experiment: HCT116 colon cancer tumor xenografts in nude mice; format: in vivo
Method: (§1) For in vivo, HCT116 cells were injected into the blanks of nude mice, after one week when there was a palpable tumor and these compounds were injected intraperitonially (5 mg/kg body weight) every day for 21 days. Tumor volumes were measured weekly. On 29th day mice were euthanized and the tumors were removed and weighed for use in histology, immunohistochemistry, and gene expression studies. Both THB and THBCD inhibited growth of the tumor. It is noted that the images of FIG. 4C are from left to right: control; THB; and THBCD.
as §1, with “DBQ” for “Both THB and THBCD”, “inhibited the” for “inhibited”, “16C” for “4C”, “control;” for “control; THB;”, “DBQ.” for “THBCD.”
FIGS. 19A and 19B show MRL 16 inhibits tumor growth, such as on colon cancer tumor xenografts. For in vivo, HCT116 cells were injected into the blanks of nude mice, after one week when there was a palpable tumor and these compounds were injected intraperitonially (2 mg/kg body weight) every day for 21 days. Tumor volumes were measured weekly. On 29th day mice were euthanized and the tumors were removed and weighed. MRL16 inhibited growth of the tumor.

[2] = system: 253JBV bladder cancer cells; experiment: hexoseaminidase cell proliferation assay, 253JBV; format: cell-based
Method: (§2) Using hexoseaminidase assay, we determined the effect of the compounds on cell proliferation. […] The IC50 value at 48 hours is below 10 μM in all the cancer cell lines.

[3] = system: MiaPaCa-2 pancreatic cancer cells; experiment: hexoseaminidase cell proliferation assay, MiaPaCa-2; format: cell-based; settings: Homo sapiens, MIA PaCa-2
Method: as §2
(§3) Using hexoseaminidase assay, we determined the effect of the compounds on cell proliferation. […] The MRL16 IC50 value at 48 hours is below 0.3 μM in Colon cancer cell lines. […] Overall, the analogs can be used as chemotherapeutic agents against colon and pancreatic cancer.

cancer stem cells = experiment: colonosphere formation; format: cell-based
Method: It was also determined the analogs inhibit colonosphere formation from cancer stem cells. […] The columns are 0, 10, 25, and 50 micromolar concentrations of the compounds labeled by rows.
The effect of the compounds on colonosphere formation was determined. […] Overall, the analogs have shown they can be used as chemotherapeutic agents against colon, pancreatic and bladder cancer.

[4] = system: PanC-1 pancreatic cancer cells; experiment: hexoseaminidase cell proliferation assay, PanC-1; format: cell-based; settings: Homo sapiens
Method: as §2, §3

SW480 cells [5] = experiment: colony formation, SW480; format: cell-based
HCT116 cells [6] = experiment: colony formation, HCT116; format: cell-based
[7] = system: colon, pancreatic and bladder cancer cells; experiment: hexoseaminidase cell proliferation assay, summaries over cell lines; format: cell-based; settings: for inhibition of cell proliferation (in words): dose and time dependent
Method: Water solubility studies were performed with the CD/analog complexes. […] The observed IC50 value of THBCD at 48 h is below 10 μM in all the colon, pancreatic and bladder cancer cells.
as §2, §3

SW480 colon cancer cells = experiment: hexoseaminidase cell proliferation assay, SW480; format: cell-based; settings: Homo sapiens
Text: (§4) Using hexoseaminidase assay, we determined the effect of the compounds on cell proliferation. […]
(§5) Using hexoseaminidase assay, we determined the effect of the compounds on cell proliferation. […] […] […] Overall, the analogs can be used as chemotherapeutic agents against colon and pancreatic cancer.

HCT116 cells [8] = experiment: cell cycle analysis, HCT116; format: cell-based; settings: for cell cycle effect (in words): HCT116 cells
KU7 bladder cancer cells = experiment: hexoseaminidase cell proliferation assay, KU7; format: cell-based
Method: as §2

[9] = system: HCT116 colon cancer cells; experiment: hexoseaminidase cell proliferation assay, HCT116; format: cell-based; settings: Homo sapiens, HCT-116
Text: as §4, §5

MiaPaCa-2 cells = experiment: colony formation, MiaPaCa-2; format: cell-based
SW480 cells [10] = experiment: cell cycle analysis, SW480; format: cell-based
Method: The analogs were tested to determine the ability induce death of colon cancer cells.

HCT116 cells [11] = experiment: colonosphere formation, HCT116; format: cell-based
Text: These compounds may be preferred in some instances.

[12] = intraperitoneal 5 mg/kg body weight every day for 21 days
[13] = intraperitoneal 2 mg/kg body weight every day for 21 days

Row | IC50 ([3]; MiaPaCa-2, 24 h) | IC50 ([3]; MiaPaCa-2, 48 h) | IC50 ([3]; MiaPaCa-2, 72 h) | IC50 ([4]; PANC-1, 24 h) | IC50 ([4]; PANC-1, 48 h) | IC50 ([4]; PANC-1, 72 h) | IC50 (SW480 colon cancer cells; SW480, 24 h) | IC50 (SW480 colon cancer cells; SW480, 48 h) | IC50 (SW480 colon cancer cells; SW480, 72 h) | IC50 ([9]; HCT116, 24 h) | IC50 ([9]; HCT116, 48 h) | IC50 ([9]; HCT116, 72 h) | Structure (SMILES) | colony formation (HCT116 cells [6]) | inhibition of cell proliferation (in words) [7] | G0/G1 (%) (SW480 cells [10]; SW480, 24 h) | G2M/ (%) (SW480 cells [10]; SW480, 24 h) | S (%) (SW480 cells [10]; SW480, 24 h) | SubG0 Dead Cells (%) (SW480 cells [10]; SW480, 24 h) | cell cycle effect (in words) (SW480 cells [10]; SW480, 24 h) | G0/G1 (%) (SW480 cells [10]; SW480, 48 h) | further results
1 | 25 µM | 8 µM | 6 µM | 45 µM | 9 µM | 7 µM | 10 µM | 6 µM | 5 µM | 10 µM | 5 µM | 5 µM | CC(C)(C)C1=CC(=NNC(=O)c2cc3ccccc3cc2O)C=C(C(C)(C)C)C1=O [DBQ] | inhibit colony formation | potent inhibitor |  |  |  |  |  |  | colony formation (PanC-1 cells): inhibit colony formation; tumor volume [1, 12]: significantly reduced; tumor weight [1, 12]: significantly reduced; IC50 ([2]; 24 h): 50 µM; IC50 ([2]; 48 h): 25 µM; IC50 ([2]; 72 h): 6 µM; colonosphere formation (cancer stem cells): potent inhibitors of colonosphere formation; colony formation (SW480 cells [5]): inhibit colony formation; IC50 ([7]; 48 h, all the colon, pancreatic and bladder cancer cell lines): < 10 µM; cell cycle effect (in words) (HCT116 cells [8]; 5 μM and 10 μM, 24 hours, propidium iodide flow cytometry): induces G2/M arrest; IC50 (KU7 bladder cancer cells; KU7, 24 h): 20 µM; IC50 (KU7 bladder cancer cells; KU7, 48 h): 8 µM; IC50 (KU7 bladder cancer cells; KU7, 72 h): 6 µM; colony formation (MiaPaCa-2 cells): inhibit colony formation
2 | > 10 µM | > 10 µM | 5 µM | > 10 µM | 4 µM | 2.5 µM | > 2 µM | 0.3 µM | 0.2 µM | > 2 µM | 0.3 µM | 0.2 µM | C/C(=N\NC(=O)c1ccncc1)c1ccc2ccccc2c1O [MRL16] | inhibit colony formation | potent inhibitor | 59.8% | 19.7% | 19.7% | 0.77% | induces G1 arrest | 58.4% | G2M/ (%) (SW480 cells [10]; SW480, 48 h): 20.1%; S (%) (SW480 cells [10]; SW480, 48 h): 20.0%; SubG0 Dead Cells (%) (SW480 cells [10]; SW480, 48 h): 1.05%; cell cycle effect (in words) (SW480 cells [10]; SW480, 48 h): S-phase arrest; tumor volume [1, 13]: significantly reduced; tumor weight [1, 13]: significantly reduced; IC50 ([7]; 48 hours, Colon cancer cell lines): < 0.3 µM; G0/G1 (%) (HCT116 cells [8]; HCT116, 24 h): 57.3%; G2/M (%) (HCT116 cells [8]; HCT116, 24 h): 26.9%; S (%) (HCT116 cells [8]; HCT116, 24 h): 14.5%; SubG0 Dead Cells (%) (HCT116 cells [8]; HCT116, 24 h): 1.11%; G0/G1 (%) (HCT116 cells [8]; HCT116, 48 h): 63.7%; G2/M (%) (HCT116 cells [8]; HCT116, 48 h): 19.9%; S (%) (HCT116 cells [8]; HCT116, 48 h): 14.4%; SubG0 Dead Cells (%) (HCT116 cells [8]; HCT116, 48 h): 1.70%; cell cycle effect (in words) (HCT116 cells [8]): induces G2/M arrest; colonosphere formation (HCT116 cells [11]): inhibits colonosphere formation
3 | > 10 µM | > 10 µM | 5 µM | > 10 µM | 3 µM | 1 µM | > 2 µM | 1 µM | 0.6 µM | > 2 µM | 1 µM | 0.8 µM | C/C(=N\NC(=O)c1cccnc1)c1ccc2ccccc2c1O [MRL17] | inhibit colony formation | potent inhibitor | 54.9% | 22.0% | 22.3% | 0.50% | induces G1 arrest | 59.3% | G2M/ (%) (SW480 cells [10]; SW480, 48 h): 18.3%; S (%) (SW480 cells [10]; SW480, 48 h): 20.8%; SubG0 Dead Cells (%) (SW480 cells [10]; SW480, 48 h): 1.12%; cell cycle effect (in words) (SW480 cells [10]; SW480, 48 h): S-phase arrest; G0/G1 (%) (HCT116 cells [8]; HCT116, 24 h): 63.9%; G2/M (%) (HCT116 cells [8]; HCT116, 24 h): 20.9%; S (%) (HCT116 cells [8]; HCT116, 24 h): 14.0%; SubG0 Dead Cells (%) (HCT116 cells [8]; HCT116, 24 h): 0.99%; G0/G1 (%) (HCT116 cells [8]; HCT116, 48 h): 63.1%; G2/M (%) (HCT116 cells [8]; HCT116, 48 h): 20.8%; S (%) (HCT116 cells [8]; HCT116, 48 h): 14.3%; SubG0 Dead Cells (%) (HCT116 cells [8]; HCT116, 48 h): 1.57%; cell cycle effect (in words) (HCT116 cells [8]): induces G2/M arrest; colonosphere formation (HCT116 cells [11]): inhibits colonosphere formation
